This series is described as follows: equilibrium dialysis test (slow release of minoxidil ion through a dialysis membrane). The format is physicochemical. The conditions noted are these: 10 ml solution containing 0.45 mmoles, pH 4.4, equilibrated through a dialytic barrier with 130 ml of water at pH 4.4. An excerpt:
A direct experimental evidence of the slow-release mechanism, characterizing the minoxidil-polyanion salts, is obtained by dialysis equilibrium tests, as shown in the enclosed Figure. […] If the dialysis solution is substituted, the equilibrium is recovered after dissociation of a further amount of salt. This process mimicks "in vitro" the drug's slow release action at the skin level, characterized by a constant and uniform absorption of the active principle, whose availability in time is provided by the continuous dissociation of the salt.
When the equilibrium conditions are reached at the points marked by the arrows, the equilibrium solution is removed, substituting it with 130 ml of water, till reestablishment of the new equilibrium conditions.

The values that follow come from patent publication EP0211268B1, “Slow-release topical formulations” (Zappia, Vincenzo, priority 1985, dated 1987).

Turning to `Cl.Nc1cc(N2CCCCC2)nc(N)[n+]1[O-]` [minoxidil chloride], the “minoxidil found outside the dialysis membrane at equilibrium” value is reported as “about 90%”.
